{
  "source": "ChEMBL document CHEMBL5465560",
  "about": "“Selectivity Literature for EUbOPEN Chemogenomic Library” (2024)",
  "key": {"[1]": {"molecular_target": "Dual specificity mitogen-activated protein kinase kinase 2 (Homo sapiens) (UniProt P36507)", "sequence (P36507 whole entry)": "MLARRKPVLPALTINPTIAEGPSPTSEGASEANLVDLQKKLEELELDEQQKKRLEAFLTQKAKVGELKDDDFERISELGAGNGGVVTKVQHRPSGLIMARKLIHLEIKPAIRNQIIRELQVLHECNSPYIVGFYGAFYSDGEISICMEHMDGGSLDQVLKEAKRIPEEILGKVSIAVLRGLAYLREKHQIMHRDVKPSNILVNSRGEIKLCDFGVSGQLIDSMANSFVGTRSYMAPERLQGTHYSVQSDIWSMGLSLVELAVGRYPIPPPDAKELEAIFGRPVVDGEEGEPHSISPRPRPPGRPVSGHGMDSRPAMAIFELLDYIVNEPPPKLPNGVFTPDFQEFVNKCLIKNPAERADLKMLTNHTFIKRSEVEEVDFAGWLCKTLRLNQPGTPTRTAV", "assay": "Selectivity interaction (KinomeScan (DiscoverX)) EUB0000666a MAP2K2", "settings": "at 10 µM"}, "[2]": {"molecular_target": "Sodium-dependent dopamine transporter (Homo sapiens, UniProt Q01959)", "sequence (Q01959 whole entry)": "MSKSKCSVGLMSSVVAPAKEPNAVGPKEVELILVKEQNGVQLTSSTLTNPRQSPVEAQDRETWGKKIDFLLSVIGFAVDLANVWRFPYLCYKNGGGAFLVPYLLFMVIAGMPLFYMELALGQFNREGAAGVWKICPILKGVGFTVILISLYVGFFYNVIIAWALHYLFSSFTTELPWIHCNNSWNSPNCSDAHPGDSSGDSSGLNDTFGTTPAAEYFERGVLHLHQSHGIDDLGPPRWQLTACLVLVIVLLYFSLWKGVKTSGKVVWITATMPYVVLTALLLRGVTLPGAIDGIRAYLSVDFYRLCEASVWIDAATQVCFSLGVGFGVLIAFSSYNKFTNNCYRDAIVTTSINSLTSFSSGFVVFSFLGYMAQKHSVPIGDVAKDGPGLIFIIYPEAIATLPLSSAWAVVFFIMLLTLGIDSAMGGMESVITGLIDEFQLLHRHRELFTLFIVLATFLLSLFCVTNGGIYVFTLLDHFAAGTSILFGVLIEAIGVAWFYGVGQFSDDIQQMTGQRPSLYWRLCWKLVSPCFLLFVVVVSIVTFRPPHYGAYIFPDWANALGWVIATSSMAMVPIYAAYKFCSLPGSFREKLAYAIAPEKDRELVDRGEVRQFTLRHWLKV", "assay": "Selectivity interaction (Dopamine Transporter assay, human recombinant ) EUB0000877a SLC6A3"}, "[3]": {"molecular_target": "Cyclin-dependent kinase 15 (Homo sapiens) (UniProt Q96Q40)", "assay": "Selectivity interaction (KinomeScan (DiscoverX)) EUB0000607a CDK15", "settings": "at 10 µM"}, "[4]": {"molecular_target": "Casein kinase II subunit alpha (Homo sapiens, UniProt P68400)", "assay": "Selectivity interaction (KinomeScan (DiscoverX)) EUB0000607a CSNK2A1", "settings": "at 10 µM"}, "[5]": {"molecular_target": "Serine/threonine-protein kinase PAK 4 (Homo sapiens, UniProt O96013)", "sequence (O96013 whole entry, looked up)": "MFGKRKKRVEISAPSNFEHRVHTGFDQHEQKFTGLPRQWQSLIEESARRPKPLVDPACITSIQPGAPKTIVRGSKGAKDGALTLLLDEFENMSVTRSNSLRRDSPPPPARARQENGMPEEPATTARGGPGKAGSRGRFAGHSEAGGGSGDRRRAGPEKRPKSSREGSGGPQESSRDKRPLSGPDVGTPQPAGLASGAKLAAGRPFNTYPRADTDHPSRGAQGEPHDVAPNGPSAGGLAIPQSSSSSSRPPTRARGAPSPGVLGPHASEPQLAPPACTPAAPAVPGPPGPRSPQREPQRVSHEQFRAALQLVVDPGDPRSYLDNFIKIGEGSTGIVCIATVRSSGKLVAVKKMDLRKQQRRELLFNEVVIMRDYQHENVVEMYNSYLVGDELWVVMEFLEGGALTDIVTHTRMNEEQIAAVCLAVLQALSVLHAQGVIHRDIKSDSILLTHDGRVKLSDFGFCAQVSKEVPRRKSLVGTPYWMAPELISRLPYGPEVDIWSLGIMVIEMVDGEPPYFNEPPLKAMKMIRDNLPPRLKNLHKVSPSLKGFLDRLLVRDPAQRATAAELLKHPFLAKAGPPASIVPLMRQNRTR", "assay": "Selectivity interaction (KinomeScan (DiscoverX)) EUB0000695a PAK4", "settings": "at 100 nM"}, "[6]": {"molecular_target": "Tyrosine-protein kinase Lck (Homo sapiens, UniProt P06239)", "sequence (P06239 whole entry)": "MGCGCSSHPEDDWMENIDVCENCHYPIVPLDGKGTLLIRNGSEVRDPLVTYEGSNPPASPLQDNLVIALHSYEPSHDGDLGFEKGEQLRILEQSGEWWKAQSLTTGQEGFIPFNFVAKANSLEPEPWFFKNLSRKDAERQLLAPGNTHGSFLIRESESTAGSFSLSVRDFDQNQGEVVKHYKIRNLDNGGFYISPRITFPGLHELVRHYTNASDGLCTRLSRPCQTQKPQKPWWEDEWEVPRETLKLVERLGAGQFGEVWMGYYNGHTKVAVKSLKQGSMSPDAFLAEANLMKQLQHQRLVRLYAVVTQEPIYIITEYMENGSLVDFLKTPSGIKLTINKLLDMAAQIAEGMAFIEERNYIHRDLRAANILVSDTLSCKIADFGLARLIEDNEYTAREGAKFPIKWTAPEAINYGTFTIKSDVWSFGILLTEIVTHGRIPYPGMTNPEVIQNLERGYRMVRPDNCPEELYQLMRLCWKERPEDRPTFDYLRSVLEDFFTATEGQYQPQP", "assay": "Selectivity interaction (Radiometric kinase assay (using 10 uM ATP)) EUB0000601a LCK"}, "[7]": {"molecular_target": "Ribosomal protein S6 kinase alpha-5 (Homo sapiens) (UniProt O75582)", "settings": "at 10 µM"}, "[8]": {"molecular_target": "T1, Myotonin-protein kinase (Homo sapiens) (UniProt Q09013)", "T1 sequence (whole entry)": "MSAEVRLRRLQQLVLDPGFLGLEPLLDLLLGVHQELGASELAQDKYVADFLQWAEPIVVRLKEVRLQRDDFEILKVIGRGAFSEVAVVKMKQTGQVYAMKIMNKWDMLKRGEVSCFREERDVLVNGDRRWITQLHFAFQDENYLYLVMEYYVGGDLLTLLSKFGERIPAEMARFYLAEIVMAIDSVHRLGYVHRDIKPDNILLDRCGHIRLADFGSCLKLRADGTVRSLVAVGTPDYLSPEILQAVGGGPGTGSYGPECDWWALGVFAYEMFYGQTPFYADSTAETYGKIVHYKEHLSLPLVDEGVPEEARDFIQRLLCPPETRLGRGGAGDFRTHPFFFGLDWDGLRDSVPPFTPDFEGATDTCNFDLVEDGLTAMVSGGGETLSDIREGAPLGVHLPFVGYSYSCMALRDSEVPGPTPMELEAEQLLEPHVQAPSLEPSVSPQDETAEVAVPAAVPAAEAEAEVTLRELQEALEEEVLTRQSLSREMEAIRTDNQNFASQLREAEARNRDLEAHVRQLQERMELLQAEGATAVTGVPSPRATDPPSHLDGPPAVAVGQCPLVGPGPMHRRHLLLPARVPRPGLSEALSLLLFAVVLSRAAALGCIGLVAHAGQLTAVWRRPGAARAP", "assay": "Selectivity interaction (KinomeScan (DiscoverX)) EUB0000655a DMPK", "settings": "at 10 µM"}, "[9]": {"molecular_target": "Serine/threonine-protein kinase pim-1 (Homo sapiens, UniProt P11309)", "sequence (P11309 whole entry)": "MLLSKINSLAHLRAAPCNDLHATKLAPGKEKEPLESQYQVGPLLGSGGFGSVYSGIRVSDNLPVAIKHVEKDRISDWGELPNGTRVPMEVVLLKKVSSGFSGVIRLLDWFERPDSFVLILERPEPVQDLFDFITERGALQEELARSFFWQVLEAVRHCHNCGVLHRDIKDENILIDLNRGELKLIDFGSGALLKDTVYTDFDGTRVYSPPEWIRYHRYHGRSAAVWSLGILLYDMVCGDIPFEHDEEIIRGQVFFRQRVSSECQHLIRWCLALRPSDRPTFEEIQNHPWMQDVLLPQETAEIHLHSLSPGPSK"}, "[10]": {"molecular_target": "BDNF/NT-3 growth factors receptor (Homo sapiens) (UniProt Q16620)", "sequence (Q16620 32-822 limits assumed)": "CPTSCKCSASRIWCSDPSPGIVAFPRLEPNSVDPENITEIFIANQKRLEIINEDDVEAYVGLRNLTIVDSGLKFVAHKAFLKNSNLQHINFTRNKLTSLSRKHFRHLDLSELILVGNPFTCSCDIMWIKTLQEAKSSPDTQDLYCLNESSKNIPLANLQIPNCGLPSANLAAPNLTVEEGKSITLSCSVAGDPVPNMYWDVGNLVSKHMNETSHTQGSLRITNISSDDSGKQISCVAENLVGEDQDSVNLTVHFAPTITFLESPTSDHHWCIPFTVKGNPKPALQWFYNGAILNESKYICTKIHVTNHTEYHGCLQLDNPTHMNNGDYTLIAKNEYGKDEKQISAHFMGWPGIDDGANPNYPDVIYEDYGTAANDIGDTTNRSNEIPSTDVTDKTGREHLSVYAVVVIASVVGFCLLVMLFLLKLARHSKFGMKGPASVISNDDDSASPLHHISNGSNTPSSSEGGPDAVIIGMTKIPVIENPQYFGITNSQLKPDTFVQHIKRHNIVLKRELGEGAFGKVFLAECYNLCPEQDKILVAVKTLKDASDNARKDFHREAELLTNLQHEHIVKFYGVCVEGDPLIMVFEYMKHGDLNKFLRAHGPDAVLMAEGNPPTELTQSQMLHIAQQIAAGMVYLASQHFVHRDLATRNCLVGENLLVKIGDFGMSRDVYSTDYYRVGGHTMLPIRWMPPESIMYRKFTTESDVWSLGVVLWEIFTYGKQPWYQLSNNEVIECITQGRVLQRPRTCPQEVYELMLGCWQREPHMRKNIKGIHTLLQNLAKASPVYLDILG", "assay": "Selectivity interaction (KinomeScan (DiscoverX)) EUB0000045b NTRK2"}, "[11]": {"molecular_target": "T2, NUAK family SNF1-like kinase 1 (Homo sapiens) (UniProt O60285)", "T2 sequence (whole entry)": "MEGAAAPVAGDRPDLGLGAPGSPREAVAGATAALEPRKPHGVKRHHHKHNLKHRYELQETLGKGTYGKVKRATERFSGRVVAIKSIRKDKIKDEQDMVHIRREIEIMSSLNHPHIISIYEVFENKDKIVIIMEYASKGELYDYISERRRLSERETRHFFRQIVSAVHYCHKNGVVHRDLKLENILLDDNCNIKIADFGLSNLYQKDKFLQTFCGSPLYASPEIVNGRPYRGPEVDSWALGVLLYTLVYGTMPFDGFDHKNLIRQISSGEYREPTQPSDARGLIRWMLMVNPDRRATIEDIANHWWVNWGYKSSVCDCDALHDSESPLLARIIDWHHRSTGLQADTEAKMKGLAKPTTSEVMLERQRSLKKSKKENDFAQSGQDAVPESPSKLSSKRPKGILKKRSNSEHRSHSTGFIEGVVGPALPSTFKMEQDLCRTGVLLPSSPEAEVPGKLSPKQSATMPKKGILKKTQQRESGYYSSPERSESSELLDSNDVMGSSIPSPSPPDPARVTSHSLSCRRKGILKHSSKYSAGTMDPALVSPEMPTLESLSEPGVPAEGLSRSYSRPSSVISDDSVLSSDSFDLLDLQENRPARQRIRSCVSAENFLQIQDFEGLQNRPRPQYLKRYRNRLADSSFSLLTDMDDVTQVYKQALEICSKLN", "assay": "Selectivity interaction (KinomeScan (DiscoverX)) EUB0001079a NUAK1", "settings": "at 1 µM"}, "[12]": {"molecular_target": "SRSF protein kinase 3 (Homo sapiens) (UniProt Q9UPE1)", "sequence (Q9UPE1 whole entry)": "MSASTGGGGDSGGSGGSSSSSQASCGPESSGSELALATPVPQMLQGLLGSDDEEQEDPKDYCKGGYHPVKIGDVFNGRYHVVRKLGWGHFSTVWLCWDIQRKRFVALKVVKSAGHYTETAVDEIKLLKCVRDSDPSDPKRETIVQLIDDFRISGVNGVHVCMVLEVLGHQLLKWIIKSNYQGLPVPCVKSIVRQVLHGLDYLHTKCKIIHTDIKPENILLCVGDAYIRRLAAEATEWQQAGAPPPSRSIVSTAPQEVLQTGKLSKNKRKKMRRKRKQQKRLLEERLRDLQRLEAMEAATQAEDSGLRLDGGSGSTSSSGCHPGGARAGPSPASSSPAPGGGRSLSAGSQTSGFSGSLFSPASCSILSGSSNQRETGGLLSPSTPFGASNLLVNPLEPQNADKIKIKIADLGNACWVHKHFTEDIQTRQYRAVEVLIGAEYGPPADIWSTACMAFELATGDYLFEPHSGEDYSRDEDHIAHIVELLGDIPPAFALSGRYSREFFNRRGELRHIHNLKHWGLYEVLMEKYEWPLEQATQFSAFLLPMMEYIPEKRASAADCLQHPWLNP", "assay": "Selectivity interaction (KinomeScan (DiscoverX)) EUB0000618a SRPK3", "settings": "at 10 µM"}, "[13]": {"molecular_target": "Dual specificity tyrosine-phosphorylation-regulated kinase 1B (Homo sapiens, UniProt Q9Y463)", "sequence (Q9Y463 whole entry, looked up)": "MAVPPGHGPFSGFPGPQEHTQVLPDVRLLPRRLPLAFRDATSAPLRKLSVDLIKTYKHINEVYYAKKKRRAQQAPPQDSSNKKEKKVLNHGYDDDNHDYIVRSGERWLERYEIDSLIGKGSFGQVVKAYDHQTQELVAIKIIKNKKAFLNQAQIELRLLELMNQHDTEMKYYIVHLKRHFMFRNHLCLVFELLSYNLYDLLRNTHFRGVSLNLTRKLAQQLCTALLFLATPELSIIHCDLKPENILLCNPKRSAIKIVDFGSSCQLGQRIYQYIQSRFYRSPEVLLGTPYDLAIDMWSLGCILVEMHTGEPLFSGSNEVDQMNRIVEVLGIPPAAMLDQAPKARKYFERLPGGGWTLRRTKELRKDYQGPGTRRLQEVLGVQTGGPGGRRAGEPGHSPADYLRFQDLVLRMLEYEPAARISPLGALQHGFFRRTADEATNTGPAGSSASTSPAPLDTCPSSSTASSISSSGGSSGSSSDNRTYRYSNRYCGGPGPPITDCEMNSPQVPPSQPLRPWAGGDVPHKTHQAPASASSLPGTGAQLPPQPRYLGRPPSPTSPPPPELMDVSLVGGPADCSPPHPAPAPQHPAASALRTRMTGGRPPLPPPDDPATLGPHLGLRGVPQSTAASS", "assay": "Selectivity interaction (KinomeScan (DiscoverX)) EUB0000618a DYRK1B", "settings": "at 10 µM"}, "[14]": {"molecular_target": "Mitogen-activated protein kinase 14 (Homo sapiens, UniProt Q16539)", "sequence (Q16539 whole entry)": "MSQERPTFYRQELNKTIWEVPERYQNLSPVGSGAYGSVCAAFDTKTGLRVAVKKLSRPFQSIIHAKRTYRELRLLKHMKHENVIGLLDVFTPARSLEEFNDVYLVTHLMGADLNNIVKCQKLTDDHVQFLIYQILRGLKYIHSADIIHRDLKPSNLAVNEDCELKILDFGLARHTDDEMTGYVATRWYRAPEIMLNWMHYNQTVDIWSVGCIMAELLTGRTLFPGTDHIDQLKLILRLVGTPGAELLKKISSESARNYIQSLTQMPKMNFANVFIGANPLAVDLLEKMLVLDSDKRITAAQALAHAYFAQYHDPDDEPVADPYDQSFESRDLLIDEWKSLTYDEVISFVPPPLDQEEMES", "assay": "Selectivity interaction (ActivX KiNativ screen (ex vivo kinase selectivity in human PBMCs)) EUB0001619a MAPK14", "assay_type": "cell-based", "settings": "PBMC, at 1 µM"}, "[15]": {"molecular_target": "Mitogen-activated protein kinase 8 (Homo sapiens, UniProt P45983)", "assay": "Selectivity interaction (KinomeScan (DiscoverX)) EUB0001619a MAPK8", "settings": "at 1 µM"}},
  "data": [
    {"molecule": "O=C(NOC[C@H](O)CO)c1ccc(F)c(F)c1Nc1ccc(I)cc1F", "values": [
      {"measurement": "% of control", "setting": "[1]", "value": 0.2, "unit": "%"}
    ]},
    {"molecule": "CCC(=O)N1CC[C@H](Nc2ncnc3c2CN(c2cnc(OC)c(C(F)(F)F)c2)CC3)C1", "note": "[LENIOLISIB]", "values": [
      {"measurement": "IC50", "setting": "[2]", "value": "> 30", "unit": "µM"}
    ]},
    {"molecule": "CNC(=O)Nc1ccc(-c2nc(N3CC4CCC(C3)O4)c3cnn(C4CCC5(CC4)OCCO5)c3n2)cc1", "values": [
      {"measurement": "% of control", "setting": "[3]", "value": 100, "unit": "%"},
      {"measurement": "% of control", "setting": "[4]", "value": 80, "unit": "%"}
    ]},
    {"molecule": "Cc1cc(F)c(C(=O)Nc2cccc(-c3nncn3C(C)C)n2)cc1-n1cnc(C2CC2)c1", "values": [
      {"measurement": "% of control", "setting": "[5]", "value": 99, "unit": "%"}
    ]},
    {"molecule": "CCc1cc(Nc2nccc(-c3c(-c4ccc(OC)c(C(=O)Nc5c(F)cccc5F)c4)nc4ccccn34)n2)c(OC)cc1N1CCC(N2CCN(S(C)(=O)=O)CC2)CC1", "values": [
      {"measurement": "IC50", "setting": "[6]", "value": "> 3", "unit": "µM"}
    ]},
    {"molecule": "COCC(=O)NC/C=C/c1ccc2ncnc(Nc3ccc(Oc4ccc(C)nc4)c(C)c3)c2c1", "note": "[CP-724714]", "values": [
      {"measurement": "% of control", "setting": "[7]", "value": 98, "unit": "%"}
    ]},
    {"molecule": "CN(C)CCOc1ccc(-c2nc(-c3ccncc3)c(-c3ccc4c(c3)CC/C4=N\\O)[nH]2)cc1", "values": [
      {"measurement": "% of control", "setting": "[8]", "value": 100, "unit": "%"}
    ]},
    {"molecule": "CCc1cccc(CC)c1NC(=O)c1nn(C)c2c1CCc1cnc(Nc3ccc(C(=O)NC4CCN(C)CC4)cc3OC(F)(F)F)nc1-2", "values": [
      {"measurement": "IC50", "setting": "[9]", "value": "> 10", "unit": "µM"}
    ]},
    {"molecule": "C=CC(=O)Nc1cc(-n2c(=O)ccc3cnc4ccc(-c5ccc(NS(C)(=O)=O)cc5)cc4c32)ccc1C", "values": [
      {"measurement": "% of control", "setting": "[10]; at 1 µM", "value": 62, "unit": "%"},
      {"measurement": "% of control", "setting": "[10]; at 10 µM", "value": 78, "unit": "%"}
    ]},
    {"molecule": "Nc1cnc(N2CCc3cc(S(=O)(=O)Nc4c(F)cc(Cl)cc4F)cc(N4CCCC4=O)c32)nc1", "note": "[TP-020n]", "values": [
      {"measurement": "% of control", "setting": "[11]", "value": 100, "unit": "%"}
    ]},
    {"molecule": "O[C@H]1CC[C@H](Nc2ncc3nc(Nc4c(F)cc(F)cc4F)n([C@H]4CCOC4)c3n2)CC1", "values": [
      {"measurement": "% of control", "setting": "[12]", "value": 92, "unit": "%"},
      {"measurement": "% of control", "setting": "[13]", "value": 100, "unit": "%"}
    ]},
    {"molecule": "N#Cc1cccc(-c2c[nH]c3ncnc(N4CCOCC4)c23)c1", "values": [
      {"measurement": "% of inhibition", "setting": "[14]", "value": -15, "unit": "%"},
      {"measurement": "% of control", "setting": "[15]", "value": 62, "unit": "%"}
    ]}
  ]
}
